From patent publication US7956089B2, “Cyclopropanecarboxylate and pest controlling composition containing the same” (Sumitomo Chemical Company, Limited, priority 2007, dated 2011)

How the values were obtained:
[1] = system: Culex pipiens pallens; experiment: Test Example 1: topical application of acetone solution to the nota of female imagoes, death rate; assay type: in vivo; conditions: 0.015 μg of the test compound per mosquito, 0.005% (w/v) acetone solution, after 24 hours
Experimental: A 0.005% (w/v) solution of a test compound in acetone was prepared. The nota of 10 female imagoes of Culex pipiens pallens were treated with the acetone solution in an amount of 0.015 μg of the test compound per mosquito. Then, water and feed were given to the test mosquitoes. After 24 hours, the number of dead mosquitoes was counted, and a death rate was calculated (2 repetitions).

[2] = system: Culex pipiens pallens; experiment: Test Example 2: vapor exposure over treated aluminum dish in an inverted cup, knockdown rate; assay type: in vivo; conditions: 0.002% (w/v) acetone solution, drug amount about 2 mg per 1 m^2, female imagos, after 60 minutes
Experimental: A 0.002% (w/v) solution of a test compound in acetone was prepared. Then, 0.64 ml of the acetone solution was dropped onto the bottom of an aluminum dish having a diameter of 9 cm. Then, acetone was air-dried (drug amount: about 2 mg per 1 m^2). Ten female imagos of Culex pipiens pallens were released in a polyethylene cup (diameter: 9 cm; height: 4.5 cm), and the upper opening portion of the polyethylene cup was covered with a 16 mesh nylon net. Next, the cup was inverted onto the aluminum dish. After 60 minutes, the number of knocked down mosquitoes was counted and a knockdown rate was calculated (2 repetitions). As a result, the knockdown rate of the present compound (1) was 70%.

Structure (SMILES)	Death rate (%) [1]	knockdown rate [2]
COCc1c(F)c(F)c(COC(=O)[C@@H]2[C@@H](C)C2(C)C)c(F)c1F [Comparative compound (B), 4-methoxymethyl-2,3,5,6-tetrafluorobenzyl (1R)-trans-2,3,3-trimethylcyclopropanecarboxylate, reference compound]	55%	
C#CCc1c(F)c(F)c(COC(=O)[C@@H]2[C@@H](C)C2(C)C)c(F)c1F [Present compound (1), 4-(2-propynyl)-2,3,5,6-tetrafluorobenzyl (1R)-trans-2,2,3-trimethylcyclopropanecarboxylate]	95%	70%
